Laboratory results from article PMC9743148 (Annals of oncology : official journal of the European …, 2020).
“Also recorded” adds a separate entry of the source. Read-outs that look alike come from different tables or passages of the source.

Assays:
[1] = system: patients with advanced solid tumors; assay: Dose-limiting toxicity, MTD and RP2D determination; type: in vivo, human
[2] = Dose-proportionality power regression of PK parameters; type: in vivo, human; details: 8–200-mg dose range t.i.w.
[3] = for T1/2 / Tmax: 20 mg q.d.
clinical = details: human, plasma, oral; for AUC(0-inf): AUC0–inf; for AUC(0-t): AUC0–last
[4] = 4 mg, 4 mg q.d., cycle 1 Day 1, mean
[5] = 4 mg, 4 mg q.d., cycle 1 Day 21, mean
[6] = 8 mg, 8 mg q.d., cycle 1 Day 1, mean
[7] = 8 mg, 8 mg t.i.w., cycle 1 Day 1, mean
[8] = 8 mg, 8 mg q.d., cycle 1 Day 21, mean
[9] = 8 mg, 8 mg t.i.w., cycle 1 Last Wednesday, mean
[10] = 16 mg, 16 mg q.d., cycle 1 Day 1, mean
[11] = 16 mg, 16 mg t.i.w., cycle 1 Day 1, mean
[12] = 16 mg, 16 mg q.d., cycle 1 Day 21, mean
[13] = 20 mg, 20 mg q.d., cycle 1 Day 1, mean
[14] = 20 mg, 20 mg q.d., cycle 1 Day 21, mean
[15] = 24 mg, 24 mg q.d., cycle 1 Day 1, mean
[16] = 24 mg, 24 mg t.i.w., cycle 1 Day 1, mean
[17] = 24 mg, 24 mg q.d., cycle 1 Day 21, mean
[18] = 36 mg, 36 mg t.i.w., cycle 1 Day 1, mean
[19] = 56 mg, 56 mg t.i.w., cycle 1 Day 1, mean
[20] = 80 mg, 80 mg t.i.w., cycle 1 Day 1, mean
[21] = 120 mg, 120 mg t.i.w., cycle 1 Day 1, mean
[22] = 160 mg, 160 mg t.i.w., cycle 1 Day 1, mean

**Q.** Which results are given for `C=CC(=O)N1CC[C@H](n2nc(C#Cc3cc(OC)cc(OC)c3)c3c(N)ncnc32)C1` [futibatinib]?
**A.** Dose-limiting toxicities ([1]; 4, 8, 16, or 20 mg q.d.): No DLTs were observed; Recommended phase II dose (RP2D) ([1]; human, in vivo, oral, 21 days): 20 mg q.d.; Dose-limiting toxicities ([1]; other t.i.w. cohorts including 200 mg): no DLTs were reported; Maximum tolerated dose (MTD) ([1]; q.d. schedule): 20 mg q.d.; Maximum tolerated dose (MTD) ([1]; t.i.w. schedule, up to 200 mg): no MTD was defined; also recorded: not defined; Dose proportionality of Cmax [2]: less than a dose-proportional manner; T1/2 ([3]; cycle 1 Day 1, mean): 2.94 h; Tmax ([3]; cycle 1 Day 1, median): 1.92 h; T1/2 ([3]; cycle 1 Day 21, mean): 3.44 h; Tmax ([3]; cycle 1 Day 21, median): 3.52 h; Accumulation with repeated doses ([3]; both schedules): no significant accumulation; Urinary excretion of futibatinib ([3]; urine): lower than 0.01 % of the dose; Patients with CCA experiencing PR or SD (advanced solid tumors; 18 of 24 patients with cholangiocarcinoma): 75%; Best overall response of confirmed partial response (PR) (advanced solid tumors; across cohorts (n = 86)): five; Responses lasting >6 months (advanced solid tumors; five responders): three; Responses occurring within 3 months of initiating futibatinib (advanced solid tumors; five responders): Four of five; AUC(0-inf) (clinical; [4]): 117 ng·h/mL; AUC(0-t) (clinical; [4]): 114 ng·h/mL; AUC(0-t) (clinical; [5]): 134 ng·h/mL; Cmax (clinical; [4]): 33.1 ng/mL; Cmax (clinical; [5]): 52.5 ng/mL; half-life (clinical; 4 mg, T1/2, 4 mg q.d., cycle 1 Day 1, mean): 1.75 h; half-life (clinical; 4 mg, T1/2, 4 mg q.d., cycle 1 Day 21, mean): 1.63 h; Tmax (clinical; 4 mg, 4 mg q.d., cycle 1 Day 1, median): 0.96 h; Tmax (clinical; 4 mg, 4 mg q.d., cycle 1 Day 21, median): 1.08 h; AUC(0-inf) (clinical; [6]): 524 ng·h/mL; AUC(0-inf) (clinical; [7]): 315 ng·h/mL; AUC(0-t) (clinical; [6]): 666 ng·h/mL; AUC(0-t) (clinical; [8]): 550 ng·h/mL; AUC(0-t) (clinical; [7]): 304 ng·h/mL; AUC(0-t) (clinical; [9]): 472 ng·h/mL; Cmax (clinical; [6]): 169 ng/mL; Cmax (clinical; [8]): 98.2 ng/mL; Cmax (clinical; [7]): 85.5 ng/mL; Cmax (clinical; [9]): 106 ng/mL; half-life (clinical; 8 mg, T1/2, 8 mg q.d., cycle 1 Day 1, mean): 2.26 h; half-life (clinical; 8 mg, T1/2, 8 mg q.d., cycle 1 Day 21, mean): 2.75 h; half-life (clinical; 8 mg, T1/2, 8 mg t.i.w., cycle 1 Day 1, mean): 2.08 h; half-life (clinical; 8 mg, T1/2, 8 mg t.i.w., cycle 1 Last Wednesday, mean): 2.01 h; Tmax (clinical; 8 mg, 8 mg q.d., cycle 1 Day 1, median): 2 h; Tmax (clinical; 8 mg, 8 mg q.d., cycle 1 Day 21, median): 2 h; Tmax (clinical; 8 mg, 8 mg t.i.w., cycle 1 Day 1, median): 1.04 h; AUC(0-inf) (clinical; [10]): 549 ng·h/mL; AUC(0-inf) (clinical; [11]): 744 ng·h/mL; AUC(0-t) (clinical; [10]): 536 ng·h/mL; AUC(0-t) (clinical; [12]): 737 ng·h/mL; AUC(0-t) (clinical; [11]): 736 ng·h/mL; Cmax (clinical; [10]): 148 ng/mL; Cmax (clinical; [12]): 172 ng/mL; Cmax (clinical; [11]): 207 ng/mL; Cmax (clinical; 16 mg, 16 mg t.i.w., cycle 1 Last Wednesday, mean): 213 ng/mL; half-life (clinical; 16 mg, T1/2, 16 mg q.d., cycle 1 Day 1, mean): 2.73 h; half-life (clinical; 16 mg, T1/2, 16 mg q.d., cycle 1 Day 21, mean): 2.53 h; half-life (clinical; 16 mg, T1/2, 16 mg t.i.w., cycle 1 Day 1, mean): 2.11 h; half-life (clinical; 16 mg, T1/2, 16 mg t.i.w., cycle 1 Last Wednesday, mean): 2.75 h; Tmax (clinical; 16 mg, 16 mg q.d., cycle 1 Day 1, median): 2 h; Tmax (clinical; 16 mg, 16 mg q.d., cycle 1 Day 21, median): 2.07 h; Tmax (clinical; 16 mg, 16 mg t.i.w., cycle 1 Day 1, median): 1 h; Tmax (clinical; 16 mg, 16 mg t.i.w., cycle 1 Last Wednesday, median): 1 h; AUC(0-inf) (clinical; [13]): 1300 ng·h/mL; AUC(0-t) (clinical; [13]): 1190 ng·h/mL; AUC(0-t) (clinical; [14]): 1180 ng·h/mL; Cmax (clinical; [13]): 257 ng/mL; Cmax (clinical; [14]): 171 ng/mL; half-life (clinical; 20 mg, T1/2, 20 mg q.d., cycle 1 Day 1, mean): ~3 h; half-life (clinical; 20 mg, T1/2, 20 mg q.d., cycle 1 Day 21, mean): ~3 h; AUC(0-inf) (clinical; [15]): 1270 ng·h/mL; AUC(0-inf) (clinical; [16]): 2200 ng·h/mL; AUC(0-t) (clinical; [15]): 1220 ng·h/mL; AUC(0-t) (clinical; [17]): 1420 ng·h/mL; AUC(0-t) (clinical; [16]): 1790 ng·h/mL; Cmax (clinical; [15]): 246 ng/mL; Cmax (clinical; [17]): 194 ng/mL; Cmax (clinical; [16]): 258 ng/mL; Cmax (clinical; 24 mg, 24 mg t.i.w., cycle 1 Last Wednesday, mean): 361 ng/mL; half-life (clinical; 24 mg, T1/2, 24 mg q.d., cycle 1 Day 1, mean): 3.13 h; half-life (clinical; 24 mg, T1/2, 24 mg q.d., cycle 1 Day 21, mean): 3.12 h; half-life (clinical; 24 mg, T1/2, 24 mg t.i.w., cycle 1 Day 1, mean): 3.52 h; half-life (clinical; 24 mg, T1/2, 24 mg t.i.w., cycle 1 Last Wednesday, mean): 5.99 h; Tmax (clinical; 24 mg, 24 mg q.d., cycle 1 Day 1, median): 1.98 h; Tmax (clinical; 24 mg, 24 mg q.d., cycle 1 Day 21, median): 2 h; Tmax (clinical; 24 mg, 24 mg t.i.w., cycle 1 Day 1, median): 3 h; Tmax (clinical; 24 mg, 24 mg t.i.w., cycle 1 Last Wednesday, median): 1.05 h; AUC(0-inf) (clinical; [18]): 2680 ng·h/mL; AUC(0-t) (clinical; [18]): 2670 ng·h/mL; Cmax (clinical; [18]): 556 ng/mL; Cmax (clinical; 36 mg, 36 mg t.i.w., cycle 1 Last Wednesday, mean): 736 ng/mL; half-life (clinical; 36 mg, T1/2, 36 mg t.i.w., cycle 1 Day 1, mean): 4.84 h; half-life (clinical; 36 mg, T1/2, 36 mg t.i.w., cycle 1 Last Wednesday, mean): 6.57 h; Tmax (clinical; 36 mg, 36 mg t.i.w., cycle 1 Day 1, median): 2 h; Tmax (clinical; 36 mg, 36 mg t.i.w., cycle 1 Last Wednesday, median): 2.56 h; AUC(0-inf) (clinical; [19]): 3300 ng·h/mL; AUC(0-t) (clinical; [19]): 3290 ng·h/mL; Cmax (clinical; [19]): 695 ng/mL; Cmax (clinical; 56 mg, 56 mg t.i.w., cycle 1 Last Wednesday, mean): 930 ng/mL; half-life (clinical; 56 mg, T1/2, 56 mg t.i.w., cycle 1 Day 1, mean): 5.97 h; half-life (clinical; 56 mg, T1/2, 56 mg t.i.w., cycle 1 Last Wednesday, mean): 6.24 h; Tmax (clinical; 56 mg, 56 mg t.i.w., cycle 1 Day 1, median): 3.08 h; Tmax (clinical; 56 mg, 56 mg t.i.w., cycle 1 Last Wednesday, median): 2 h; AUC(0-inf) (clinical; [20]): 9560 ng·h/mL; AUC(0-t) (clinical; [20]): 7470 ng·h/mL; Cmax (clinical; [20]): 964 ng/mL; Cmax (clinical; 80 mg, 80 mg t.i.w., cycle 1 Last Wednesday, mean): 757 ng/mL; half-life (clinical; 80 mg, T1/2, 80 mg t.i.w., cycle 1 Day 1, mean): 4.77 h; half-life (clinical; 80 mg, T1/2, 80 mg t.i.w., cycle 1 Last Wednesday, mean): 5.28 h; Tmax (clinical; 80 mg, 80 mg t.i.w., cycle 1 Last Wednesday, median): 3 h; AUC(0-inf) (clinical; [21]): 5310 ng·h/mL; AUC(0-t) (clinical; [21]): 6640 ng·h/mL; Cmax (clinical; [21]): 713 ng/mL; Cmax (clinical; 120 mg, 120 mg t.i.w., cycle 1 Last Wednesday, mean): 910 ng/mL; half-life (clinical; 120 mg, T1/2, 120 mg t.i.w., cycle 1 Day 1, mean): 6.18 h; half-life (clinical; 120 mg, T1/2, 120 mg t.i.w., cycle 1 Last Wednesday, mean): 10.6 h; Tmax (clinical; 120 mg, 120 mg t.i.w., cycle 1 Day 1, median): 3.04 h; Tmax (clinical; 120 mg, 120 mg t.i.w., cycle 1 Last Wednesday, median): 3.17 h; AUC(0-t) (clinical; [22]): 7980 ng·h/mL; Cmax (clinical; [22]): 819 ng/mL; Cmax (clinical; 160 mg, 160 mg t.i.w., cycle 1 Last Wednesday, mean): 863 ng/mL; half-life (clinical; 160 mg, T1/2, 160 mg t.i.w., cycle 1 Day 1, mean): 8.75 h; half-life (clinical; 160 mg, T1/2, 160 mg t.i.w., cycle 1 Last Wednesday, mean): 3.99 h; Tmax (clinical; 160 mg, 160 mg t.i.w., cycle 1 Day 1, median): 2.52 h; Tmax (clinical; 160 mg, 160 mg t.i.w., cycle 1 Last Wednesday, median): 5.57 h; Cmax (clinical; 200 mg, 200 mg t.i.w., cycle 1 Day 1, mean): 1290 ng/mL; Cmax (clinical; 200 mg, 200 mg t.i.w., cycle 1 Last Wednesday, n 1): 845 ng/mL; half-life (clinical; 200 mg, T1/2, 200 mg t.i.w., cycle 1 Day 1, mean): 9.55 h; Tmax (clinical; 200 mg, 200 mg t.i.w., cycle 1 Day 1, median): 2 h
